Series [1] in a line: In-vivo PET imaging, lung uptake in wild type and bleomycin treated rats. More on the design: species or system rat. Particulars: Sprague Dawley, rat, lung, intravenous. Here is the method: (§1) [^18F]-(1S,3S)-3-(((6-(5-((((4-(fluoro)butyl)(methyl)carbamoyl)oxy)methyl)-1-methyl-1H-1,2,3-triazol-4-yl)-2-methylpyridin-3-yl)oxy)cyclohexane-1-carboxylic acid was tested to confirm its properties, specificity and targeting of the LPA1 receptor in aged-matched wild type (Sprague Dawley rat, Charles River Laboratory, PA) and bleomycin-induced pulmonary fibrosis rat models. The bleomycin-induced pulmonary fibrosis rat model was generated in anesthetized rats that were administered bleomycin (2 μL/g) via oropharyngeal instillation. For oropharyngeal instillation, anesthetized rats (isoflurane, 4% in 100% 02) were placed on a slanted board/tilting workstation and bleomycin was dripped onto the vocal cords, facilitating aspiration. Rats were then returned to their cages until they fully recovered from anesthesia and were monitored daily for the duration of the experiment. In this experiment, the [^18F]-labeled LPA1 antagonist, produced as described in the above Examples, was tested for its ability to discriminate between normal lung in wild type rats and increased lung LPA1 expression in the bleomycin rat disease model. The bleomycin treated rats were used at 14 and 15 days post bleomycin treatment. PET images were acquired at 14 days (baseline) and 15 days (blocking with a 10 mg/kg oral dose of an LPA1 antagonist administered 30 minutes before PET scan). Two groups of rats were used in the PET imaging study—aged matched wild type rats (Group 1, n=4) and bleomycin treated rats (Group 2, n=4). All animals received a baseline PET imaging scan and a repeat PET imaging scan following a single 10 mg/kg oral dose of an LPA1 antagonist. For PET image acquisition, rats were placed in an anesthetic induction chamber and 3% isoflurane inhalant anesthesia was delivered in 100% O2 at a rate of 1-1.5 L/min. Once sedated, the rats were removed from the induction chamber and placed into a plexiglass 2-chamber holder (custom-made by BMS-Applied Biotechnology group) within the gantry of the PET system (microPET® F220™, Siemens Preclinical Solutions, Knoxville, Tenn.) where they remained for the duration of the study. Anesthesia was maintained with 1-1.5% isoflurane inhalant anesthesia delivered in 100% 02 at a rate of 2 L/min via the nose-cone. Animals were kept warm using an external standalone temperature regulating unit (M2M Imaging Corp) to prevent hypothermia during imaging. Rat respiration was continuously monitored during imaging procedures and isoflurane was adjusted dependent on depth of anesthesia. A 10-minute transmission image was first acquired using a ^57Co point source for the purpose of attenuation correction of the final PET images and confirmation of lung localization for region of interest (ROI) analysis. The scanning region was located beginning at the neck area and extending toward the hind limbs of each animal in order to place the lungs within the 7.6 cm microPET system axial field of view (FOV). Upon completion of the transmission scan, each rat received administration of between 19.5-29.7 MBq (542-803 μCi) of [^18F]-(1S,3S)-3-(((6-(5-((((4-(fluoro)butyl)(methyl) carbamoyl)oxy)methyl)-1-methyl-1H-1,2,3-triazol-4-yl)-2-methylpyridin-3-yl)oxy)cyclohexane-1-carboxylic acid tracer via tail vein catheter followed by a 2 hour dynamic PET emission scan. For blocking studies, the same protocol was flowed 30 minutes after a 10 mg/kg oral dose of an LPA1 antagonist. Images were reconstructed using a maximum a posteriori (MAP) algorithm with attenuation correction using the collected transmission images and corrected for radioisotope decay. The PET images were then co-registered with corresponding transmission images using anatomical landmarks (air in lung) and boundaries of the animal holder. Images were analyzed by Inveon Research Workstation (Siemens Medical Solutions USA Inc., PA). Analysis for each rat was done with regions of interest (ROIs) drawn onto each whole lung and a section of the liver using the co-registered transmission images. […]

The target of series [2] is LPA1 (Rattus norvegicus, UniProt P61794). Described as above. Conditions: for Lung uptake (% ID/g) @ 60-90 min: baseline PET scan, listed as [^18F]-(1S,3S)-3-(6-(5-((((4-(fluoro)butyl)(methyl)carbamoyl)oxy)methyl)-1-meth)). Here is the method: as §1
LPA1, sequence (P61794 whole entry): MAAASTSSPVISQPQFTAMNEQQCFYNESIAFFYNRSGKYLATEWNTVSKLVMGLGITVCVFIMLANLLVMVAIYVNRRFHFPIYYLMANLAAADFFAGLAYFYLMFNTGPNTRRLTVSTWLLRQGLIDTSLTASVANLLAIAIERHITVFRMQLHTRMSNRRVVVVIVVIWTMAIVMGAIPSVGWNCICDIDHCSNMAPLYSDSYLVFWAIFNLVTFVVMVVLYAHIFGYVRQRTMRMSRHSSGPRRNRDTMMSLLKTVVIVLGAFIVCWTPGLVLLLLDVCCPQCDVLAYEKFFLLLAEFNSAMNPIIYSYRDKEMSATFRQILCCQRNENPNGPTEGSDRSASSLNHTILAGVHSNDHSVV
Series [3] in a line: Free fraction (free of protein binding) of the PET radioligand. The format is in vitro ADME. Conditions: read-out: free fractions, free of protein binding.

SMILES strings stand for the structures. “And” between values parts separate entries of the source, which are not always exact repeats. Identical values can stand only once. Like-named read-outs stand apart in the source and are kept apart here.

Take `Cc1nc(-c2nnn(C)c2COC(=O)N(C)CCCC[18F])ccc1O[C@H]1CCC[C@H](C(=O)O)C1` [Example 16]: the tissue uptake in series [1] (bleomycin treated rats (Group 2, n=4), baseline, 60-90 minutes post injection, read-out: mean and standard error of radiotracer uptake in lung tissue) is 0.116 %ID/g; in series [1] (individual bleomycin treated rats (Group 2), baseline PET scan, 14 days post bleomycin, read-out: Lung uptake (% ID/g) @ 60-90 min), 0.116 %ID/g; in series [1] (individual wild type rats (Group 1), baseline PET scan, read-out: Lung uptake (% ID/g) @ 60-90 min) it was 0.085 %ID/g; in series [1] (wild type rats (Group 1, n=4), baseline, 60-90 minutes post injection, read-out: mean and standard error of radiotracer uptake in lung tissue), 0.08 %ID/g. In series [2] (bleomycin treated vs wild type rats, baseline, p<0.05), the “increase in the lung radioligand signal in disease induced model vs wild type animals” value is on record as 46%. For the same molecule, the “Lung uptake (% ID/g) @ 60-90 min” value was 0.142 % ID/g and 0.118 % ID/g and 0.088 % ID/g in series [2] (individual bleomycin treated rats (Group 2), 14 days post bleomycin); 0.075 % ID/g and 0.063 % ID/g and 0.095 % ID/g in series [2] (individual wild type rats (Group 1)). Further, the fraction unbound in series [3] lay within 0.05 to 0.11.

(Values after US20210379210A1, “RADIOLIGANDS FOR IMAGING THE LPA1 RECEPTOR” (BRISTOL-MYERS SQUIBB COMPANY, priority 2018, published 2021).)
